The test system of assay [1] is THP1 cells. Put plainly: IFN-β secretion in THP1 cell culture (5 h). Format: cell-based, human. As to conditions: Homo sapiens, THP-1, 5 h, IFN-β secretion, THP1 cells, 5 h, 30 μM; read-out: % Effect at 30 μM relative to 2′3′-cGAMP. As to the method: The ability of compounds to stimulate the secretion of interferon-beta from THP1 cells was measured using a human IFN-β AlphaLISA kit (Perkin Elmer, Cat. No. AL265F). The basic protocol is as follows:
A Labcyte Echo 550 acoustic dispenser was used to transfer 120 nL of compound dissolved in DMSO into the wells of an empty, sterile 384-well microplate, (Corning, Cat. No. 3712). THP1 cells (American Type Culture Collection, Cat. No. TIB202) previously frozen in Recovery Medium (Life Technologies, Cat. No. 12648-010) were thawed and immediately diluted 10-fold into 37° C. assay medium (RPMI 1640+L-Glutamine & phenol red, Life Technologies, Cat. No. 11875-085; 0.5% heat inactivated fetal bovine serum, Sigma Aldrich, Cat. No. F4135; 1 mM Sodium Pyruvate, Life Technologies, Cat. No. 11360-070; lx non-essential amino acids; Life Technologies, Cat. No. 11140-050). The cell viability and count was ascertained using a Beckman Coulter V-Cell XR cell counter. The cells suspension was centrifuged at 200×g for 5 min at RT. Cells were resuspended to a density of 0.8×10^6/mL in 37° C. assay medium. Subsequent liquid transfers were performed using either a Matrix electronic multichannel pipette or an Agilent Bravo Automated Liquid Handling Platform.
The assay was started by dispensing 40 μL of the previously prepared cell suspension into the wells of the plate containing compounds. After 5 h incubation at 37° C., 5% CO2 in a humidified atmosphere, the plate of cells and compounds was centrifuged at 200×g for 5 min at RT. From each well, 5 μL of supernatant was transferred into corresponding wells of a white 384-well plate (Perkin Elmer, Cat. No. 6005620). To these supernatant-containing wells was added 10 μL of 5× Anti-Analyte Acceptor beads (50 μg/mL of AlphaLISA HiBlock Buffer) and incubated for 30 min at RT while shaking on an orbital plate shaker. To each well was added 10 μL of 5× Biotinylated Antibody Anti-analyte (5 nM in AlphaLISA HiBlock Buffer) and incubated on an orbital plate shaker for 60 min at RT or overnight at 4° C. To each well was added 25 μL of 2× SA-Donor beads (80 μg/mL in AlphaLISA HiBlock Buffer) and incubated for 30-45 min at RT in the dark while shaking on an orbital plate shaker. The plate was then read on a Perkin Elmer Envision (λex=680 nm, λem=[…]). The percent effect of the AlphaLISA signal at each compound concentration was calculated based on 30 uM cGAMP positive controls and 0.3% DMSO negative controls. The plot of percent effect versus the log of compound concentration was fit with a 4-parameter concentration response equation to calculate EC50 values. The test compounds were tested at concentrations 30000, 10000, 3333, 1111, 370.4, 123.4, 41.2, 13.7, 4.6, and 1.5 nM with 0.3% residual DMSO.
Compounds of the disclosure were evaluated for IFN-β secretion in THP1 cell culture as described above. The following table tabulates the biological data for these compounds as percent activation relative to 2′3′-cGAMP at the 30 μM concentration.

In assay [2] the target is full-length HAQ STING (Homo sapiens (Human), UniProt Q86WV6, G230A/H232R/R293Q/R71H). Put plainly: 3H-cGAMP filtration binding assay (HAQ STING). As to conditions: competition with tritiated cGAMP, HAQ STING membrane. The source says: The ability of compounds to bind STING is quantified by the ability to compete with tritiated cGAMP ligand for human STING receptor membrane using a radioactive filter-binding assay. The binding assay employs STING receptor obtained from Hi-Five cell membranes overexpressing full-length HAQ STING prepared in-house and tritiated cGAMP ligand also purified in-house.
full-length HAQ STING, sequence (Q86WV6 other isoform, or with tags, fused parts or gaps, stated change not applied): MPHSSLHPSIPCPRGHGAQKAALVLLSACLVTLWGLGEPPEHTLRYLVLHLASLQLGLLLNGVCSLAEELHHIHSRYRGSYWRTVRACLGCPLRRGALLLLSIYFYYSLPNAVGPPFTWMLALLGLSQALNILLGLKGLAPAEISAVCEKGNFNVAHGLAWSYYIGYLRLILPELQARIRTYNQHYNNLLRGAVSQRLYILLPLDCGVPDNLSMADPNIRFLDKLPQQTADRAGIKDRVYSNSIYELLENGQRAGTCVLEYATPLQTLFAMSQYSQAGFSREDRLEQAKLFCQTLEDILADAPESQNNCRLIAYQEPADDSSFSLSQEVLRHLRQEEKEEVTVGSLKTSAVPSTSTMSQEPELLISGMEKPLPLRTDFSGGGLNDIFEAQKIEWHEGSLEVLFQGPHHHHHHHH
The ability of compounds to bind STING is quantified by their ability to compete with tritiated cGAMP ligand for human STING receptor membrane using a radioactive filter-binding assay. The binding assay employs STING receptor obtained from Trichoplusia ni cell membranes (Tni; Expression Systems, cat #94-002F, www.exrpressionsystems.com) overexpressing full-length HAQ STING prepared in-house and tritiated cGAMP ligand also purified in-house.
The basic HAQ STING filtration assay protocol is as follows:
Compound and membrane then preincubated for 60 min at RT to allow compound binding to equilibrate. Following equilibration, 8 nM of [^3H] c-GAMP ligand was prepared by diluting into assay buffer, and 50 uL of this working stock was then manually added to each well of the assay plate. […] The filter plates were then dried at 55° C. for 30 min using a pressurized VWR oven before 30 uL of Ultima GoldF scintillate was added to each well. Tritium levels for each reaction well were then measured using a PerkinElmer TopCount plate reader.
After normalization to controls, the percent activity for each compound concentration was calculated by measuring the amount of remaining radioactivity. The plot of percent activity versus the log of compound concentration was fit with a 4-parameter dose response equation to calculate EC50 values.

From patent publication US10738074B2, “Cyclic di-nucleotide compounds as STING agonists” (Merck Sharp & Dohme Corp., priority 2015, dated 2020) come the findings set out here.

The structures appear in SMILES notation. Bounds are passed on as bounds.

As for `Nc1nc2c(ncn2[C@@H]2O[C@@H]3COP(=O)(O)O[C@@H]4[C@H](O)[C@@H](COP(=O)(O)O[C@@H]2[C@@H]3F)O[C@H]4n2cnc3c(N)ncnc32)c(=O)[nH]1` [Example 3, 2-amino-9-[(1R,6R,8R,9S,14R,16R,17R,18R)-16-(6-amino-9H-purin-9-yl)-18-fluoro-3,11,17-trihydroxy-3,11-dioxido-2,4,7,10,12,15-hexaoxa-3,11-diphosphatricyclo[12.2.1.1^6,9]octadec-8-yl]-1,9-dihydro-6H-purin-6-one], the activation at 30 µM in assay [1] came to 150%. Moreover, the EC50 (usually the concentration giving half of the maximal effect) in assay [2] came out at 3.6 nM.
The like results for `Nc1nc2c(ncn2[C@@H]2O[C@@H]3COP(=O)(O)O[C@@H]4[C@H](F)[C@@H](COP(=O)(O)O[C@@H]2[C@@H]3O)O[C@H]4n2cnc3c(N)ncnc32)c(=O)[nH]1` [Example 4, 2-amino-9-[(1S,6R,8R,9R,14R,16R,17R,18R)-16-(6-amino-9H-purin-9-yl)-17-fluoro-3,11,18-trihydroxy-3,11-dioxido-2,4,7,10,12,15-hexaoxa-3,11-diphosphatricyclo[12.2.1.1^6,9]octadec-8-yl]-1,9-dihydro-6H-purin-6-one] were, in that order, 104% and 1.8 nM.
The like results for `[N-]=[N+]=N[C@H]1[C@H]2OP(=O)(O)OC[C@H]3O[C@@H](n4cnc5c(N)ncnc54)[C@H](OP(=O)(O)OC[C@H]1O[C@H]2n1cnc2c(=O)[nH]c(N)nc21)[C@@H]3O` [Example 5, 2-amino-9-[(1R,6S,8R,9R,14R,16R,17R,18R)-16-(6-amino-9H-purin-9-yl)-18-azido-3,11,17-trihydroxy-3,11-dioxido-2,4,7,10,12,15-hexaoxa-3,11-diphosphatricyclo[12.2.1.1^6,9]octadec-8-yl]-1,9-dihydro-6H-purin-6-one] were, in that order, 145% and less than 1 nM.
The like results for `C[C@H]1OP(=O)(O)O[C@@H]2[C@H](F)[C@@H](COP(=O)(O)O[C@@H]3[C@H](O)[C@@H]1O[C@H]3n1cnc3c(N)ncnc31)O[C@H]2n1cnc2c(=O)[nH]c(N)nc21` [Example 7, 2-amino-9-[(1R,6R,8R,9S,13R,14S,16R,17R,18R)-16-(6-amino-9H-purin-9-yl)-18-fluoro-3,11,17-trihydroxy-13-methyl-3,11-dioxido-2,4,7,10,12,15-hexaoxa-3,11-diphosphatricyclo[12.2.1.16,9]octadec-8-yl]-1,9-dihydro-6H-purin-6-one] were, in that order, 59% and 45.2 nM.
On to `C[C@@H]1OP(=O)(O)O[C@@H]2[C@H](F)[C@@H](COP(=O)(O)O[C@@H]3[C@H](O)[C@@H]1O[C@H]3n1cnc3c(N)ncnc31)O[C@H]2n1cnc2c(=O)[nH]c(N)nc21` [Example 8, 2-amino-9-[(1R,6R,8R,9S,13S,14S,16R,17R,18R)-16-(6-amino-9H-purin-9-yl)-18-fluoro-3,11,17-trihydroxy-13-methyl-3,11-dioxido-2,4,7,10,12,15-hexaoxa-3,11-diphosphatricyclo[12.2.1.16,9]octadec-8-yl]-1,9-dihydro-6H-purin-6-one], for which the activation at 30 µM in assay [1] stood at 36%. Moreover, the EC50 in assay [2] worked out at 102 nM.
In the same order, the values of `Nc1nc2c(ncn2[C@@H]2O[C@@H]3COP(=O)(O)O[C@@H]4C[C@@H](COP(=O)(O)O[C@@H]2[C@@H]3F)O[C@H]4n2cnc3c(N)ncnc32)c(=O)[nH]1` [Example 9, 2-amino-9-[(1R,6R,8R,9S,14S,16R,18R)-16-(6-amino-9H-purin-9-yl)-18-fluoro-3,11-dihydroxy-3,11-dioxido-2,4,7,10,12,15-hexaoxa-3,11-diphosphatricyclo[12.2.1.1^6,9]octadec-8-yl]-1,9-dihydro-6H-purin-6-one] are 115% and 3.7 nM.
The like results for `Nc1nc2c(ncn2[C@@H]2O[C@@H]3COP(=O)(O)O[C@@H]4[C@H](F)[C@@H](COP(=O)(O)O[C@@H]2[C@@H]3F)O[C@H]4n2cnc3c(N)ncnc32)c(=O)[nH]1` [Example 11, 2-amino-9-[(1S,6R,8R,9S,14R,16R,17R,18R)-16-(6-amino-9H-purin-9-yl)-17,18-difluoro-3,11-dihydroxy-3,11-dioxido-2,4,7,10,12,15-hexaoxa-3,11-diphosphatricyclo[12.2.1.1^6,9]octadec-8-yl]-1,9-dihydro-6H-purin-6-one] were, in that order, 131% and less than 1 nM.
In the same order, the values of `Nc1nc2c(ncn2[C@@H]2O[C@@H]3COP(=O)(O)O[C@@H]4C[C@@H](COP(=O)(O)O[C@@H]2C3)O[C@H]4n2cnc3c(N)ncnc32)c(=O)[nH]1` [Example 12, 2-amino-9-[(1R,6S,8R,9R,14S,16R)-16-(6-amino-9H-purin-9-yl)-3,11-dihydroxy-3,11-dioxido-2,4,7,10,12,15-hexaoxa-3,11-diphosphatricyclo[12.2.1.1^6,9]octadec-8-yl]-1,9-dihydro-6H-purin-6-one] are 50% and 674 nM.
With `Nc1nc2c(ncn2[C@@H]2O[C@@H]3COP(=O)(O)O[C@@H]4[C@@H](F)[C@@H](COP(=O)(O)O[C@@H]2[C@@H]3F)O[C@H]4n2cnc3c(N)ncnc32)c(=O)[nH]1` [Example 13, 2-amino-9-[(1S,6R,8R,9S,14R,16R,17S,18R)-16-(6-amino-9H-purin-9-yl)-17,18-difluoro-3,11-dihydroxy-3,11-dioxido-2,4,7,10,12,15-hexaoxa-3,11-diphosphatricyclo[12.2.1.1^6,9]octadec-8-yl]-1,9-dihydro-6H-purin-6-one], the activation at 30 µM in assay [1] is 128%. This compound also returned an EC50 in assay [2] of 11.2 nM.
The like results for `Nc1ncnc2c1ncn2[C@@H]1O[C@@H]2COP(=O)(S)O[C@@H]3[C@H](O)[C@@H](COP(=O)(S)O[C@@H]1[C@@H]2O)O[C@H]3n1cnc2c(N)ncnc21` (stereo partly drawn) [Example 27, (1R,6R,8R,9R,14R,16R,17R,18R)-8,16-bis(6-amino-9H-purin-9-yl)-3,11-disulfanyl-2,4,7,10,12,15-hexaoxa-3,11-diphosphatricyclo[12.2.1.1^6,9]octadecane-17,18-diol 3,11-dioxide] were, in that order, 76% and 6.6 nM.
In the same order, the values of `Nc1nc2c(ncn2[C@@H]2O[C@@H]3COP(=O)(O)O[C@@H]4[C@H](N)[C@@H](COP(=O)(O)O[C@@H]2[C@@H]3O)O[C@H]4n2cnc3c(N)ncnc32)c(=O)[nH]1` [Example 33, 2-amino-9-[(1R,6R,8R,9R,14S,16R,17R,18R)-17-amino-16-(6-amino-9H-purin-9-yl)-3,11,18-trihydroxy-3,11-dioxido-2,4,7,10,12,15-hexaoxa-3,11-diphosphatricyclo[12.2.1.1^6,9]octadec-8-yl]-1,9-dihydro-6H-purin-6-one] are 140% and 1.6 nM.
